# Test results reported in patent publication US11447638B2, “Acetalanthraquinone derivatives useful for cellular staining” (BIOSTATUS LIMITED, priority 2016, dated 2022).
# pIC50: −log10 of the molar value.
# What was measured:
# [1] = test system: A549 cells; test: Pulse exposure to probes, time-lapse, reimaged after 72 h; format: cell-based, human; conditions: 20 uM for 15 mins, washout, T=72 h
# Procedure: In this regard, A549 cells were seeded in a 24 well coverslip bottomed-plate, cultured overnight in McCoys media for 24 or 48 hours. The plates were placed onto an inverted automated microscope, with the capacity for acquiring an image sequence of different wells (therefore exposure to different agent labelling). An Axiovert 100 microscope (Carl Zeiss, Welwyn Garden City, UK) was fitted with an incubator for 37° C./5% CO2 maintenance (Solent Scientific, Portsmouth, UK), and an ORCA-ER CCD camera (Hamamatsu, Reading, UK). Illumination was controlled by a shutter in front of the transmission lamp, and an x, y positioning stage with separate z-focus (Prior Scientific, Cambridge, UK) controlled multi-field acquisition. Image capture was controlled using Metamorph software.
# Cells were exposed to a constant dose (0-5 μM) or a pulsed dose of 0 or 20 μM agent for 15 minutes followed by washout with warmed full media.
# All images were collected with a ×10 (PH1) apochromat objective lens providing a field size of 500 times 500 microns. In this case a phase contrast image was collected every 30 minutes for 72 hours. Single cell growth and expansion can be tracked over time. The cells were harvested and run through a flow cytometry (typically a FACS Calibur 635 nm excitation/661/16 emission).
# A549 cells were loaded with 20 uM BST-101, BST-109 or BST-110 for 15 mins followed by washout. Cells were then time-lapsed and reimaged after T=72 h, as before, […]
# [2] = test system: A549 live cells; test: Loading of A549 live cells, wide-field fluorescence microscopy; format: cell-based, human; conditions: 20 μM, 30 min incubation, FIG. 3
# Method in brief: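 Live A549 cells incubated 30 min at 37° C. in the dark with compound at 20 μM (DRAQ5 at 20 μM as reference), imaged unwashed. Uptake and localisation of red fluorescence assessed by low-resolution wide-field fluorescence microscopy, ×10 0.3 NA objective, 30 ms exposure.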
# [3] = test system: U-2 OS cells; test: Confocal laser scanning microscopy (CLSM) localisation analysis; format: cell-based, human; conditions: 30 min incubation, Ex 637 nm, Em >665 nm; for subcellular localisation by CLSM: FIG. 4 and 5
# Method in brief: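 Live U-2 OS cells imaged by confocal microscopy after 30 min incubation with probe compound, excitation 637 nm, emission >665 nm, at several z depths with solution background removed. Sections merged into maximum projections; per-cell nucleus/cytoplasm fluorescence ratio used as index of DNA binding.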
# [4] = test system: A549; test: MTT cellular viability (growth inhibition) assay, A549; format: cell-based; conditions: Homo sapiens, 0.25-100 μM, 72 h, Table 3
# Method in brief: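 Cells seeded at 1×10^4 cells/mL in R10, allowed to adhere overnight at 37 °C, 5% CO2. Compounds tested at 0.25–100 μM for 72 h; MTT read-out gave growth-inhibition IC50.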
pIC50 [4],SMILES,cell division and signal retention / location after pulse exposure [1],fluorescence brightness / background in live cells [2],specific feature of localisation by CLSM [3],subcellular localisation by CLSM [3]
4.65,"COC(CNC(=O)CCNc1ccc(NCCN(C)C)c2c1C(=O)c1ccccc1C2=O)OC [BST-109, N-(2,2-Dimethoxyethyl)-3-(4-(2-(dimethylamino)ethylamino)-9,10-dioxo-9,10-dihydroanthracen-1-ylamino)propanamide]","dividing, and signal retained but now relocated in a non-nuclear compartment perinuclear",very bright cellular fluorescence,whole cell staining,"strong nuclear uptake and perinuclear staining, with possible ER accumulation"
4.65,"COC(CC(=O)NCCNc1ccc(NCCN(C)C)c2c1C(=O)c1ccccc1C2=O)OC [BST-110, N-(2-(4-(2-(dimethylamino)ethylamino)-9,10-dioxo-9,10-dihydroanthracen-1-ylamino)ethyl)-3,3-dimethoxypropanamide]","dividing, and signal now relocated in a non-nuclear compartment perinuclear",very bright cellular fluorescence,whole cell staining,"strong nuclear uptake and perinuclear staining, with possible ER accumulation"
